Measurements: patent US12083101B2, “Biaryl derivatives as YAP/TAZ-TEAD protein-protein interaction inhibitors” (Novartis AG, priority 2020, dated 2024)
Where two headings read alike, the source gives them in different places.

Experiments:
[1] = system: MKN-45/Ubc-luc cells; assay: Reporter gene specificity control (Ubc-luciferase), MKN-45
[2] = system: NCI-H2052 Tet-On shYAP_2371 pLenti6 MCAT_Luc cells; assay: Proliferation assay (resazurin), NCI-H2052; type: cell-based; details: 72 hours incubation
Method in brief: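 The NCI-H2052 line carries a Tet-inducible shRNA against the YAP1 3′UTR and an MCAT luciferase reporter. The day after seeding, it received eleven 2-fold compound dilutions at 0.1% DMSO, and viability was read by resazurin fluorescence.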

[3] = system: NCI-H2052 Tet-On shYAP_2371 pLenti6 MCAT_Luc cells (YAP-dependent transcription); assay: YAP reporter gene activity assay (MCAT-luciferase), NCI-H2052; type: cell-based; details: 24 hours incubation, BrightGlo luminescence
Method in brief: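 NCI-H2052 cells carrying an MCAT-luciferase reporter and a tetracycline-inducible YAP 3′UTR shRNA were treated with eleven 2-fold compound dilutions (0.1% DMSO) for 24 h at 37 °C. BrightGlo luminescence was background-subtracted and expressed as % of DMSO control. IC50 came from a four-parameter fit; MKN-45/Ubc-luc cells served as the specificity counterscreen.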

[4] = system: MKN-45/Ubc-luc cells; assay: Proliferation assay (resazurin), MKN-45; type: cell-based; details: 72 hours incubation
[5] = target: Avi-humanTEAD4 217-434 / Cy5 labeled humanYAP 60-100 (Homo sapiens (Human), UniProt Q15561); assay: TR-FRET YAP-TEAD4 in-vitro biochemical assay; type: binding; details: 1 nM Avi-humanTEAD4 217-434, 20 nM Cy5-humanYAP 60-100, 1 h room temperature
[6] = Homo sapiens, MKN-45, 24 h, read-out: Reporter gene assay MKN-45 IC50 [μM], MKN-45/Ubc-luc cells (YAP deleted, specificity control), 24 hours incubation

Avi-humanTEAD4 217-434 / Cy5 labeled humanYAP 60-100, sequence (Q15561 217-434): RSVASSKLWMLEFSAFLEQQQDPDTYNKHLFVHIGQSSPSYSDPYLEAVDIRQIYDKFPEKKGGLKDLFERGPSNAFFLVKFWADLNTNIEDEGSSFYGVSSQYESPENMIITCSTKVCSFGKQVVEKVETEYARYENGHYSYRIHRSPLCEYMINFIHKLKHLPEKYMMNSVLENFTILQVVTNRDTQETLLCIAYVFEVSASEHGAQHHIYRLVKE

| SMILES | IC50 ([1]; read-out: Reporter gene assay MKN-45 IC50, MKN-45/Ubc-luc cells (YAP deleted, specificity control), 24 hours incubation) [µM] | GI50 [2] [nM] | IC50 [3] [nM] | GI50 [4] [nM] | IC50 [5] [nM] | IC50 [1, 6] [µM] | GI50 ([2]; Homo sapiens, NCI-H2052, 72 h) [nM] | IC50 ([3]; Homo sapiens, NCI-H2052, 24 h) [nM] | GI50 ([4]; Homo sapiens) [nM] |
| --- | --- | --- | --- | --- | --- | --- | --- | --- | --- |
| NC(=O)c1ccc(OC(F)F)c(F)c1-c1c(Cl)c(F)cc2c1C[C@@](CN[C@H]1CC[C@@H](O)[C@H](F)C1)(c1ccccc1)O2 (atropisomer, axis not shown) [Example 81b, 2-((2S,4S)-5-chloro-6-fluoro-2-((((1R,3S,4S)-3-fluoro-4-hydroxycyclohexyl)amino)methyl)-2-phenyl-2,3-dihydrobenzofuran-4-yl)-4-(difluoromethoxy)-3-fluorobenzamide] | > 10 | 571 | 316 | > 10000 | 32 | – | – | – | – |
| COc1ccc(C(N)=O)c(-c2c(Cl)ccc3c2[C@H](O)[C@@](CN)(c2ccccc2)O3)c1F (atropisomer, axis not shown) [Example 86, 2-((2S,3S,4S)-2-(Aminomethyl)-5-chloro-3-hydroxy-2-phenyl-2,3-dihydrobenzofuran-4-yl)-3-fluoro-4-methoxybenzamide] | – | – | – | – | 3 | > 10 | 129 | 119 | > 10000 |
| COCCOc1ccc(C(N)=O)c(-c2c(Cl)ccc3c2[C@H](O)[C@@](CN)(c2ccccc2)O3)c1F (atropisomer, axis not shown) [Example 88, 2-((2S,3S,4S)-2-(aminomethyl)-5-chloro-3-hydroxy-2-phenyl-2,3-dihydrobenzofuran-4-yl)-3-fluoro-4-(2-methoxyethoxy)benzamide] | – | – | – | – | 7 | > 10 | 242 | 91 | > 10000 |
| COc1ccc(C(N)=O)c(-c2c(Cl)ccc3c2[C@H](O)[C@@](CN)(c2cccnc2OC)O3)c1F (atropisomer, axis not shown) [Example 91, 2-((2S,3S,4S)-2-(Aminomethyl)-5-chloro-3-hydroxy-2-(2-methoxypyridin-3-yl)-2,3-dihydrobenzofuran-4-yl)-3-fluoro-4-methoxybenzamide] | – | – | – | – | 22 | > 10 | 1930 | 960 | > 10000 |
| NC(=O)c1ccc(OC(F)F)c(F)c1-c1c(Cl)ccc2c1[C@H](O)[C@@](CNC1CCC1)(c1ccccc1)O2 (atropisomer, axis not shown) [Example 96, 2-((2S,3S,4S)-5-Chloro-2-((cyclobutylamino)methyl)-3-hydroxy-2-phenyl-2,3-dihydrobenzofuran-4-yl)-4-(difluoromethoxy)-3-fluorobenzamide] | – | – | – | – | 5 | > 10 | 188 | 84 | > 10000 |
| NC(=O)c1ccc(OCCO)c(F)c1-c1c(Cl)c(F)cc2c1[C@H](O)[C@@](CNC1CCC1)(c1ccccc1)O2 (atropisomer, axis not shown) [Example 99, 2-((2S,3S,4S)-5-Chloro-2-((cyclobutylamino)methyl)-6-fluoro-3-hydroxy-2-phenyl-2,3-dihydrobenzofuran-4-yl)-3-fluoro-4-(2-hydroxyethoxy)benzamide] | – | – | – | – | 2 | > 10 | 26 | 23 | > 10000 |
| COCCOc1ccc(C(N)=O)c(-c2c(Cl)c(F)cc3c2[C@H](C)[C@@](CN)(c2ccccc2)O3)c1F (atropisomer, axis not shown) [Example 106, 2-((2S,3S,4S)-2-(aminomethyl)-5-chloro-6-fluoro-3-methyl-2-phenyl-2,3-dihydrobenzofuran-4-yl)-3-fluoro-4-(2-methoxyethoxy)benzamide] | – | – | – | – | < 1 | > 10 | 13 | 14 | > 10000 |
| COc1ccc(C(N)=O)c(-c2c(Cl)c(F)cc3c2[C@H](C)[C@@](CN)(c2ccccn2)O3)c1F (atropisomer, axis not shown) [Example 109, 2-((2R,3S,4S)-2-(aminomethyl)-5-chloro-6-fluoro-3-methyl-2-(pyridin-2-yl)-2,3-dihydrobenzofuran-4-yl)-3-fluoro-4-methoxybenzamide] | – | – | – | – | 3 | > 10 | 86 | 75 | > 10000 |
| CNC[C@]1(c2ccccc2)Oc2cc(F)c(Cl)c(-c3c(C(=O)NC)ccc(OCCO)c3F)c2[C@@H]1C (atropisomer, axis not shown) [Example 113, 2-((2S,3S,4S)-5-Chloro-6-fluoro-3-methyl-2-((methylamino)methyl)-2-phenyl-2,3-dihydrobenzofuran-4-yl)-3-fluoro-4-(2-hydroxyethoxy)-N-methylbenzamide] | – | – | – | – | 2 | > 10 | 29 | 21 | > 10000 |

Now from value to compound:

| IC50 ([1]; read-out: Reporter gene assay MKN-45 IC50, MKN-45/Ubc-luc cells (YAP deleted, specificity control), 24 hours incubation) [µM] | GI50 [2] [nM] | IC50 [3] [nM] | GI50 [4] [nM] | IC50 [5] [nM] | IC50 [1, 6] [µM] | GI50 ([2]; Homo sapiens, NCI-H2052, 72 h) [nM] | IC50 ([3]; Homo sapiens, NCI-H2052, 24 h) [nM] | GI50 ([4]; Homo sapiens) [nM] | SMILES |
| --- | --- | --- | --- | --- | --- | --- | --- | --- | --- |
| – | – | – | – | 24 | > 10 | 503 | 394 | > 10000 | NC(=O)c1ccc(OC(F)F)c(F)c1-c1c(Cl)c(F)cc2c1C[C@@](CN[C@@H]1CCC[C@H](O)C1)(c1ccccc1)O2 (atropisomer, axis not shown) [Example 83, 2-((2S,4S)-5-chloro-6-fluoro-2-((((1R,3S)-3-hydroxycyclohexyl)amino)methyl)-2-phenyl-2,3-dihydrobenzofuran-4-yl)-4-(difluoromethoxy)-3-fluorobenzamide] |
| – | – | – | – | 19 | > 10 | 1600 | 596 | > 10000 | COc1ccc(C(N)=O)c(-c2c(Cl)ccc3c2[C@H](O)[C@@](CN)(c2ccccn2)O3)c1F (atropisomer, axis not shown) [Example 89, 2-((2R,3S,4S)-2-(Aminomethyl)-5-chloro-3-hydroxy-2-(pyridin-2-yl)-2,3-dihydrobenzofuran-4-yl)-3-fluoro-4-methoxybenzamide] |
| – | – | – | – | 22 | > 10 | 1700 | 1430 | > 10000 | COc1cccc([C@@]2(CN)Oc3ccc(Cl)c(-c4c(C(N)=O)ccc(OC(F)F)c4F)c3[C@@H]2O)n1 (atropisomer, axis not shown) [Example 90, 2-((2R,3S,4S)-2-(Aminomethyl)-5-chloro-3-hydroxy-2-(6-methoxypyridin-2-yl)-2,3-dihydrobenzofuran-4-yl)-4-(difluoromethoxy)-3-fluorobenzamide] |
| – | – | – | – | 4 | > 10 | 117 | 65 | > 10000 | COc1ccc(C(N)=O)c(-c2c(Cl)c(F)cc3c2[C@H](O)[C@@](CN)(c2ccccc2)O3)c1F (atropisomer, axis not shown) [Example 97, 2-((2S,3S,4S)-2-(Aminomethyl)-5-chloro-6-fluoro-3-hydroxy-2-phenyl-2,3-dihydrobenzofuran-4-yl)-3-fluoro-4-methoxybenzamide] |
| – | – | – | – | 5 | > 10 | 172 | 108 | > 10000 | C[C@H]1c2c(ccc(Cl)c2-c2c(C(N)=O)ccc(OC(F)F)c2F)O[C@]1(CN)c1ccccc1 (atropisomer, axis not shown) [Example 103, 2-((2S,3S,4S)-2-(aminomethyl)-5-chloro-3-methyl-2-phenyl-2,3-dihydrobenzofuran-4-yl)-4-(difluoromethoxy)-3-fluorobenzamide] |
| – | – | – | – | 1 | > 4 | 27 | 14 | > 4000 | CNC[C@]1(c2ccccc2)Oc2cc(F)c(Cl)c(-c3c(C(N)=O)ccc(OCCO)c3F)c2[C@@H]1C (atropisomer, axis not shown) [Example 110, 2-((2S,3S,4S)-5-Chloro-6-fluoro-3-methyl-2-((methylamino)methyl)-2-phenyl-2,3-dihydrobenzofuran-4-yl)-3-fluoro-4-(2-hydroxyethoxy)benzamide] |
| – | – | – | – | 2 | > 10 | 23 | 18 | > 10000 | C[C@H](O)COc1ccc(C(N)=O)c(-c2c(Cl)c(F)cc3c2[C@H](C)[C@@](CN[C@H]2CC[C@](C)(O)CC2)(c2ccccc2)O3)c1F (atropisomer, axis not shown) [Example 114a, 2-((2S,3S,4S)-5-chloro-6-fluoro-2-((((trans)-4-hydroxy-4-methylcyclohexyl)amino)methyl)-3-methyl-2-phenyl-2,3-dihydrobenzofuran-4-yl)-3-fluoro-4-((S)-2-hydroxypropoxy)benzamide] |
| – | – | – | – | 2 | > 10 | 34 | 23 | > 10000 | C[C@H](O)COc1ccc(C(N)=O)c(-c2c(Cl)c(F)cc3c2[C@H](C)[C@@](CN[C@H]2CC[C@@](C)(O)CC2)(c2ccccc2)O3)c1F (atropisomer, axis not shown) [Example 114b, 2-((2S,3S,4S)-5-chloro-6-fluoro-2-((((cis)-4-hydroxy-4-methylcyclohexyl)amino)methyl)-3-methyl-2-phenyl-2,3-dihydrobenzofuran-4-yl)-3-fluoro-4-((S)-2-hydroxypropoxy)benzamide] |
